Reference: patent US10189841B2, “Purinones as ubiquitin-specific protease 1 inhibitors” (Forma Therapeutics, Inc., priority 2015, dated 2019)

Target: USP1 (construct USP1 (I-785, GG670, 671AA)/UAF1 (I-677)-Flag) (Homo sapiens (Human), UniProt O94782, G670A/G671A)
Test: Ubiquitin-Rhodamine 110 assay for USP1 activity
Assay type: biochemical
Details: USP1/UAF1 25 pM, Ub-Rh110 25 nM, 30 min preincubation
Outline: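 Two formats with the USP1/UAF1 complex and 25 nM ubiquitin-rhodamine 110 in pH 8.0 Tris buffer with calcium, glutathione and detergent. Single-point screening used 10 µM, 100 pM enzyme and 45 min. Inhibition was set against no-enzyme and DMSO wells.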

USP1 (construct USP1 (I-785, GG670, 671AA)/UAF1 (I-677)-Flag), sequence (O94782 whole entry G670A/G671A): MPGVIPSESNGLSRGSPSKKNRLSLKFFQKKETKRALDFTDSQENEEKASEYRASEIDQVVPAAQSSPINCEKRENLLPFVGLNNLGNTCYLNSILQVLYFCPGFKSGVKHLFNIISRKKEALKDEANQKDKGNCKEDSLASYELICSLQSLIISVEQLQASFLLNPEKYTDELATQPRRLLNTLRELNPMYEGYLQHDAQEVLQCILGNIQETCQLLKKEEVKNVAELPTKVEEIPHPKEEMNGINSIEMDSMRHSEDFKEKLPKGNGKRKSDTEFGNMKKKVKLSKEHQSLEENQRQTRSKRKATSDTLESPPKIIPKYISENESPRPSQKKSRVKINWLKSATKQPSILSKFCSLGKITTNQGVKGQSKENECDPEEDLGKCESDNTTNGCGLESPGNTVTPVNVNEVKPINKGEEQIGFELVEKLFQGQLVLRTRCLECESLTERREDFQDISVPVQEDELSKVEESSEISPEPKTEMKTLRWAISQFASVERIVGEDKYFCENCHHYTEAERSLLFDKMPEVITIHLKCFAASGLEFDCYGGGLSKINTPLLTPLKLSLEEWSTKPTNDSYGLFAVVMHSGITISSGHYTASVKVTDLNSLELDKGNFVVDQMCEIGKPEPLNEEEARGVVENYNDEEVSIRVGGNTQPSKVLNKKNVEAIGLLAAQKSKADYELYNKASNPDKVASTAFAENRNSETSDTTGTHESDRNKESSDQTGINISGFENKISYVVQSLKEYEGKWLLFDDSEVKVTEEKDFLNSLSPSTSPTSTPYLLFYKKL
USP1 (construct USP1 (I-785, GG670, 671AA)/UAF1 (I-677)-Flag), sequence (Q8TAF3 whole entry partner): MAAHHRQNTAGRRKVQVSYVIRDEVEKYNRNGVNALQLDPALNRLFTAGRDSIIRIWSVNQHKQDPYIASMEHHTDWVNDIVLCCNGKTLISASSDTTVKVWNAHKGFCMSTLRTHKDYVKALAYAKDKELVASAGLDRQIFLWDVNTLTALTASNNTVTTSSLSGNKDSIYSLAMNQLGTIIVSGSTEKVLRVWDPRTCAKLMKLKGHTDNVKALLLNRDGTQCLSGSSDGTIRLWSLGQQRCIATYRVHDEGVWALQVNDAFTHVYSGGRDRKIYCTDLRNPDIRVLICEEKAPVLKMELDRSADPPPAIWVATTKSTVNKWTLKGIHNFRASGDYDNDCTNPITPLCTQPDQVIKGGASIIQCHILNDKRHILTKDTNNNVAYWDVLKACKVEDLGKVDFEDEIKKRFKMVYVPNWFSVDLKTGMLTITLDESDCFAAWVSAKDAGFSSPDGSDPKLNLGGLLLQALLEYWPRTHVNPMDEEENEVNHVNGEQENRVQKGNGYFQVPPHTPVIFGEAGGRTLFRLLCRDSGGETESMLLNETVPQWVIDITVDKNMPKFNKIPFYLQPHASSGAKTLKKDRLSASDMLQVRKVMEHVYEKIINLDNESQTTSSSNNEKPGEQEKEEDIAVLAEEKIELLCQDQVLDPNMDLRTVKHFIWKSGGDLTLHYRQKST

**Q.** With `CC(C)c1ccccc1-c1ncc2[nH]c(=O)n(Cc3ccc(C(=O)N4C[C@@H](C)O[C@@H](C)C4)cc3)c2n1` [Compound I-385, 9-(4-((2R,6S)-2,6-dimethylmorpholine-4-carbonyl)benzyl)-2-(2-isopropylphenyl)-7,9-dihydro-8H-purin-8-one] as the compound, how does the IC50 read?
**A.** 50 to 200 nM

**Q.** With `Cn1cc(C(F)(F)F)nc1-c1ccc(Cn2c(=O)[nH]c3cnc(-c4cccc5cnn(C)c45)nc32)cc1` [Compound I-44, 2-(1-methyl-1H-indazol-7-yl)-9-(4-(1-methyl-4-(trifluoromethyl)-1H-imidazol-2-yl)benzyl)-7,9-dihydro-8H-purin-8-one] as the compound, how does the IC50 read?
**A.** < 50 nM

**Q.** How did the IC50 turn out when `CC(C)c1ccccc1-c1ncc2[nH]c(=O)n(Cc3cnc(-n4cccn4)cn3)c2n1` [Compound I-508, 9-((5-(1H-Pyrazol-1-yl)pyrazin-2-yl)methyl)-2-(2-isopropylphenyl)-7,9-dihydro-8H-purin-8-one] was run?
**A.** > 2000 nM

**Q.** Which IC50 does the source give for `Cn1cc(C(F)(F)F)nc1-c1ccc(Cn2c(=O)[nH]c3cnc(-c4cccnc4N4CC(F)(F)C4)nc32)cc1` [Compound I-336, 2-(2-(3,3-difluoroazetidin-1-yl)pyridin-3-yl)-9-(4-(1-methyl-4-(trifluoromethyl)-1H-imidazol-2-yl)benzyl)-7,9-dihydro-8H-purin-8-one] here?
**A.** < 50 nM

**Q.** With `CC(C)c1ccccc1-c1ncc2[nH]c(=O)n(Cc3ccc(C(=O)N4CCCC4)cc3)c2n1` [Compound I-389, 2-(2-isopropylphenyl)-9-(4-(pyrrolidine-1-carbonyl)benzyl)-7,9-dihydro-8H-purin-8-one] as the compound, how does the IC50 read?
**A.** < 50 nM

**Q.** How did the IC50 turn out when `COCCNC(=O)Nc1ccc(Cn2c(=O)n(C)c3cnc(-c4ccccc4C(C)C)nc32)cc1` [Compound I-482, 1-(4-((2-(2-isopropylphenyl)-7-methyl-8-oxo-7,8-dihydro-9H-purin-9-yl)methyl)phenyl)-3-(2-methoxyethyl)urea] was run?
**A.** 200 to 2000 nM

**Q.** How did the IC50 turn out when `CC(C)c1ccccc1-c1ncc2[nH]c(=O)n(Cc3cccc(-n4cccn4)c3)c2n1` [Compound I-197, 9-(3-(1H-pyrazol-1-yl)benzyl)-2-(2-isopropylphenyl)-7,9-dihydro-8H-purin-8-one] was run?
**A.** 50 to 200 nM

**Q.** For `CC(C)c1ncccc1-c1ncc2[nH]c(=O)n(Cc3ccc(-n4nc(C(F)(F)F)cc4N4CCOCC4)cc3)c2n1` [Compound I-77, 2-(2-isopropylpyridin-3-yl)-9-(4-(5-morpholino-3-(trifluoromethyl)-1H-pyrazol-1-yl)benzyl)-7,9-dihydro-8H-purin-8-one], which IC50 is on record?
**A.** < 50 nM

**Q.** Which IC50 does the source give for `O=c1[nH]c2cnc(-c3cccnc3OC(F)F)nc2n1Cc1ccc(-n2ccc(F)n2)cc1` [Compound I-88, 2-(2-(difluoromethoxy)pyridin-3-yl)-9-(4-(3-fluoro-1H-pyrazol-1-yl)benzyl)-7,9-dihydro-8H-purin-8-one] here?
**A.** 200 to 2000 nM

**Q.** With `CC(C)c1c(Cl)cccc1-c1ncc2[nH]c(=O)n(Cc3ccc(-n4cccn4)cc3)c2n1` [Compound I-93, 9-(4-(1H-pyrazol-1-yl)benzyl)-2-(3-chloro-2-isopropylphenyl)-7,9-dihydro-8H-purin-8-one] as the compound, how does the IC50 read?
**A.** 50 to 200 nM

**Q.** For `CC(C)c1ccccc1-c1ncc2c(n1)n(Cc1ccc(-c3cccc4ncnn34)cc1)c(=O)n2C` [Compound I-266, 9-(4-([1,2,4]triazolo[1,5-a]pyridin-5-yl)benzyl)-2-(2-isopropylphenyl)-7-methyl-7,9-dihydro-8H-purin-8-one], which IC50 is on record?
**A.** 50 to 200 nM

**Q.** `Cn1cc(C(F)(F)F)nc1-c1ccc(Cn2c(=O)[nH]c3cnc(-c4cccnc4N[C@H]4CCOC4)nc32)cc1` [Compound I-322, (S)-9-(4-(1-methyl-4-(trifluoromethyl)-1H-imidazol-2-yl)benzyl)-2-(2-((tetrahydrofuran-3-yl)amino)pyridin-3-yl)-7,9-dihydro-8H-purin-8-one] was tested. Which IC50 did it give?
**A.** 50 to 200 nM

**Q.** For `CCOCCOc1ncccc1-c1ncc2[nH]c(=O)n(Cc3ccc(-c4nc(C(F)(F)F)cn4C)cc3)c2n1` [Compound I-415, 2-(2-(2-ethoxyethoxy)pyridin-3-yl)-9-(4-(1-methyl-4-(trifluoromethyl)-1H-imidazol-2-yl)benzyl)-7,9-dihydro-8H-purin-8-one], which IC50 is on record?
**A.** < 50 nM

**Q.** How did the IC50 turn out when `CC(C)c1ccccc1-c1ncc2[nH]c(=O)n(Cc3ccc(-c4ccnn4C(C)C)cc3)c2n1` [Compound I-299, 9-(4-(1-isopropyl-1H-pyrazol-5-yl)benzyl)-2-(2-isopropylphenyl)-7,9-dihydro-8H-purin-8-one] was run?
**A.** 50 to 200 nM

**Q.** Which IC50 does the source give for `CC(C)c1ccccc1-c1ncc2[nH]c(=O)n(Cc3ccc(-c4cnn(CCN(C)C)c4)cc3)c2n1` [Compound I-520, 9-(4-(1-(2-(Dimethylamino)ethyl)-1H-pyrazol-4-yl)benzyl)-2-(2-isopropylphenyl)-7,9-dihydro-8H-purin-8-one] here?
**A.** 200 to 2000 nM

**Q.** For `CCC(=O)c1ccccc1-c1ncc2[nH]c(=O)n(Cc3ccc(-c4nc(C(F)(F)F)cn4C)cc3)c2n1` [Compound I-527, 9-(4-(1-methyl-4-(trifluoromethyl)-1H-imidazol-2-yl)benzyl)-2-(2-propionylphenyl)-7,9-dihydro-8H-purin-8-one], which IC50 is on record?
**A.** 200 to 2000 nM

**Q.** With `CC(C)c1ccccc1-c1ncc2[nH]c(=O)n(Cc3ccc(-c4cccc(CCN(C)C)c4)cc3)c2n1` [Compound I-248, 9-((3′-(2-(dimethylamino)ethyl)-[1,1′-biphenyl]-4-yl)methyl)-2-(2-isopropylphenyl)-7,9-dihydro-8H-purin-8-one] as the compound, how does the IC50 read?
**A.** 200 to 2000 nM

**Q.** With `CC(C)c1ccccc1-c1ncc2[nH]c(=O)n(Cc3ccc(-c4cncn4C)cc3)c2n1` [Compound I-251, 2-(2-isopropylphenyl)-9-(4-(1-methyl-1H-imidazol-5-yl)benzyl)-7,9-dihydro-8H-purin-8-one] as the compound, how does the IC50 read?
**A.** 200 to 2000 nM

**Q.** For `CC(C)c1ncccc1-c1ncc2c(n1)n(Cc1ccc(-c3nc(C(F)(F)F)cn3C)cc1)c(=O)n2C1COC1` [Compound I-119, 2-(2-isopropylpyridin-3-yl)-9-(4-(1-methyl-4-(trifluoromethyl)-1H-imidazol-2-yl)benzyl)-7-(oxetan-3-yl)-7,9-dihydro-8H-purin-8-one], which IC50 is on record?
**A.** 50 to 200 nM

**Q.** With `CC(C)c1ccccc1-c1ncc2[nH]c(=O)n(Cc3ccc(-n4cc(-c5ccccn5)nn4)cc3)c2n1` [Compound I-349, 2-(2-isopropylphenyl)-9-(4-(4-(pyridin-2-yl)-1H-1,2,3-triazol-1-yl)benzyl)-7,9-dihydro-8H-purin-8-one] as the compound, how does the IC50 read?
**A.** 200 to 2000 nM

**Q.** For `[2H]C([2H])([2H])n1cc(C(F)(F)F)nc1-c1ccc(Cn2c(=O)n(C)c3cnc(-c4cccnc4C(C)C)nc32)cc1` [Compound I-131, 2-(2-isopropylpyridin-3-yl)-7-methyl-9-(4-(1-(methyl-d3)-4-(trifluoromethyl)-1H-imidazol-2-yl)benzyl)-7,9-dihydro-8H-purin-8-one], which IC50 is on record?
**A.** < 50 nM

**Q.** Which IC50 does the source give for `CC(C)c1ccccc1-c1ncc2[nH]c(=O)n(Cc3ccc(-c4cc(N5CCOCC5)ncn4)cc3)c2n1` [Compound I-250, 2-(2-isopropylphenyl)-9-(4-(6-morpholinopyrimidin-4-yl)benzyl)-7,9-dihydro-8H-purin-8-one] here?
**A.** 50 to 200 nM

**Q.** `CC(C)c1ccccc1-c1ncc2c(n1)n(Cc1ccc(-c3cccc4nccn34)cc1)c(=O)n2C` [Compound I-270, 9-(4-(imidazo[1,2-a]pyridin-5-yl)benzyl)-2-(2-isopropylphenyl)-7-methyl-7,9-dihydro-8H-purin-8-one] was tested. Which IC50 did it give?
**A.** 200 to 2000 nM

**Q.** How did the IC50 turn out when `CC(C)c1ncccc1-c1ncc2c(n1)n(Cc1ccc(-c3nc(C(F)(F)F)cn3C3COC3)cc1)c(=O)n2C` [Compound I-124, 2-(2-isopropylpyridin-3-yl)-7-methyl-9-(4-(1-(oxetan-3-yl)-4-(trifluoromethyl)-1H-imidazol-2-yl)benzyl)-7,9-dihydro-8H-purin-8-one] was run?
**A.** 50 to 200 nM

**Q.** For `CC(C)c1ccccc1-c1ncc2[nH]c(=O)n(Cc3ccc(-c4nc(C(F)(F)F)cn4C4CNC4)cc3)c2n1` [Compound I-430, 9-(4-(1-(azetidin-3-yl)-4-(trifluoromethyl)-1H-imidazol-2-yl)benzyl)-2-(2-isopropylphenyl)-7,9-dihydro-8H-purin-8-one], which IC50 is on record?
**A.** < 50 nM

**Q.** For `Cc1cc(Cl)n(-c2ccc(Cn3c(=O)[nH]c4cnc(-c5cccnc5C(C)C)nc43)cc2)n1` [Compound I-53, 9-(4-(5-chloro-3-methyl-1H-pyrazol-1-yl)benzyl)-2-(2-isopropylpyridin-3-yl)-7,9-dihydro-8H-purin-8-one], which IC50 is on record?
**A.** < 50 nM

**Q.** Which IC50 does the source give for `CC(C)c1ccccc1-c1ncc2c(n1)n(Cc1ccc(N(C)S(=O)(=O)c3ccn(C)n3)cc1)c(=O)n2C` [Compound I-456, N-(4-((2-(2-isopropylphenyl)-7-methyl-8-oxo-7,8-dihydro-9H-purin-9-yl)methyl)phenyl)-N,1-dimethyl-1H-pyrazole-3-sulfonamide] here?
**A.** 50 to 200 nM

**Q.** With `Cn1cc(C(F)(F)F)nc1-c1ccc(Cn2c(=O)[nH]c3cnc(-c4cccnc4C4CC4)nc32)cc1` [Compound I-30, 2-(2-cyclopropylpyridin-3-yl)-9-(4-(1-methyl-4-(trifluoromethyl)-1H-imidazol-2-yl)benzyl)-7,9-dihydro-8H-purin-8-one] as the compound, how does the IC50 read?
**A.** < 50 nM

**Q.** How did the IC50 turn out when `CC(C)c1ccccc1-c1ncc2[nH]c(=O)n(Cc3ccc(-c4ncsc4CO)cc3)c2n1` [Compound I-302, 9-(4-(5-(hydroxymethyl)thiazol-4-yl)benzyl)-2-(2-isopropylphenyl)-7,9-dihydro-8H-purin-8-one] was run?
**A.** < 50 nM

**Q.** How did the IC50 turn out when `CC(C)c1ccccc1-c1ncc2[nH]c(=O)n(Cc3ccc(C(=O)NCc4nccn4C)cc3)c2n1` [Compound I-360, 4-((2-(2-isopropylphenyl)-8-oxo-7,8-dihydro-9H-purin-9-yl)methyl)-N-((1-methyl-1H-imidazol-2-yl)methyl)benzamide] was run?
**A.** 200 to 2000 nM

**Q.** With `Cn1cc(C(F)(F)F)nc1-c1ccc(Cn2c(=O)[nH]c3cnc(-c4cccc5c4OC(F)(F)O5)nc32)cc1` [Compound I-36, 2-(2,2-difluorobenzo[d][1,3]dioxol-4-yl)-9-(4-(1-methyl-4-(trifluoromethyl)-1H-imidazol-2-yl)benzyl)-7,9-dihydro-8H-purin-8-one] as the compound, how does the IC50 read?
**A.** 200 to 2000 nM
